“Also recorded” adds a separate entry of the source.
Key:
[1] = system: SOD^G37R mutated astrocyte cultures; test: Detection of ROS production in SOD1 G37R astrocytes after anti-oxidant treatment; format: cell-based, human; conditions: 48 hours treatment, vs vehicle (EtOH or DMSO); apocynin 300 μM, alpha lipoic acid 50 μg/mL, epicatechin 10 μM, luteolin 5 μM, resveratrol 5 μM
Procedure: Primary astrocyte culture. Human primary astrocytes (HA1800) were obtained from ScienCell Research Laboratories™ (Carlsbad, Calif.) and were cultured according to the providers' guidelines. Briefly, the astrocytes were isolated from fetal human brain (cerebral cortex) and cultured for no more than 15 passages in astrocyte media (AM 1801). The infections were performed in 80% confluent T75 flasks followed by incubation with the lentivirus expressing either the wild type of SOD1 (LV-SOD1^wT) or the mutated form of SOD1 (LV-SOD1^G37R).
Detection of ROS production. Detection of total cellular ROS was performed using the Image-iT LIVE Green reactive Oxygen Species Detection Kit, according to the manufacturer's directions (Molecular Probes, Invitrogen). Briefly, this assay is based on the principle that the live cell permeable compound, carboxy-H2DCFDA, emits a bright green fluorescence when it is oxidized in the presence of ROS. The quantification of the ROS production was addressed in 2 ways: 1) counting the number of fluorescent cells and 2) measuring the intensity of the fluorescence emitted by the cells. The relative fluorescence intensity (arbitrary units ranging from 0 to 255, or black to white) was measured in randomly selected fields for each treatment and was analyzed and quantified using ImageProPlus software.
Anti-oxidants treatment. Anti-oxidants stock solutions were diluted in astrocyte media and directly applied to astrocyte monolayers. The cultures were treated for 48 hours prior to reactive species of oxygen (ROS) detection. The compounds used in the experiment were epicatechin (E4018 Sigma Aldrich, 10 μM), luteolin (L9283 Sigma-Aldrich, 5 μM), resveratrol (R5010Sigma-Aldrich, 5 μM), apocynin (178385 Calbiochem, 300 μM), alpha lipoic acid (T5625, Sigma-Aldrich, 50 μg/mL). For neuronal co-cultures, the astrocytes were pre-treated for 48 hours with apocynin and the rosettes were plated on top of them. The co-cultures were carried for 3 more weeks and the medium containing apocynin was replaced three more times during the co-culture period.
A total of five compounds and their respective vehicles (ethanol (EtOH) or DMSO) were tested in SOD^G37R mutated astrocyte cultures to address their anti-oxidant potential (FIG. 4A).

primary human astrocytes = test: qPCR of IL1b-induced genes in primary human astrocytes; format: cell-based; conditions: 1 μM for 1 hour, then 10 ng/ml IL1b 6 hours; qPCR normalized against HPRT
Procedure: (§1) FIGS. 31A-F show indazol-estrogen suppression of the inflammation in human primary microglia and astrocytes. Primary human microglia (FIGS. 31A-C) and primary human atrocities (FIGS. 31D-E) were treated with Indazol-Estrogen-Bromide (Br), Indazol-Estrogen-Chloride (Cl), 17β-Estradiol (E2) or vehicle (ethanol:EtOH) for 1 hour followed by […] LPS stimulation for 6 hours (black column: 6 hr) or no LPS treatment (white column: Ohr). Normalized mRNA expression against HPRT of IL1β (FIG. 31A), IL23p19 (FIG. 31B), TGFβ (FIG. 31C) in microglia cells and BAFF (FIG. 31D), IL23p19 (FIG. 31E), iNOS (FIG. 31F) in astrocytes were determined using quantitative PCR. Primary human microglia and astrocytes were treated with 1 μM Indazol-Estrogen-Bromide (Br), 1 μM Indazol-Estrogen-Chloride (C1), 1 μM17β-Estradiol (E2) or vehicle (ethanol:EtOH) for 1 hour as a final concentration. Then microglia cells were stimulated with 0.1 μg/ml LPS and astrocytes were stimulated with 10 ng/ml IL1b for 6 hours. mRNA were purified and cDNA were generated by reverse transcriptase reaction. To determine the effect of ERβ-specific ligands in microglia and astrocytes-mediated inflammation, the activation of several genes induced by LPS in microglia or by IL1b in astrocytes were determined by QPCR normalized against HPRT.

[2] = system: HESC-derived motor neurons co-cultured with SOD1^G37R astrocytes; test: Co-culture of HESC-derived motor neurons with SOD1 astrocytes, quantification of ChAT-positive cells; format: cell-based, human; conditions: astrocytes pre-treated 48 hours with apocynin, co-culture 3 more weeks
Procedure: Culture conditions and differentiation of HESC. The HUES cells lines used in this study were HUES9 (Douglas Melton-WiCell) and Cythera 203 (Novocell Inc. San Diego, Calif.). The HESC were differentiated in vitro in motor neurons, adapting the protocol previously described elsewhere (Li et al., 2005). Briefly, the cells were manually dissociated to form embryoid bodies (EBs) and cultured in suspension for 5-6 days. The EBs were then plated in laminin/poli-ornithin coated plates in the presence of a neural induction medium consisting of F12/DMEM (Invitrogen, Carlsbad, Calif.), N2 supplement and 1 μM retinoic acid (RA). The cells started to organize into neural tube-like rosettes and, after 7-8 days in culture, sonic hedgehog (SHH, 500 ng/ml, R&D Systems) and cAMP (1 μM) were added to the culture media for 1 more week. The rosettes were then manually selected using a 10× magnifier (Zeiss) and gently dissociated (by pipetting up and down in a Hanks' enzyme free cell dissociation buffer-Invitrogene). After dissociation, rosettes were pelleted at 1,000 rpm and re-plated either on laminin/poli-ornithine coated coverslips (for direct differentiation) or on top of astrocyte feeder layers for the co-culture experiments. […]

primary human microglia = test: qPCR of LPS-induced genes in primary human microglia; format: cell-based; conditions: 1 μM for 1 hour, then 0.1 μg/ml LPS 6 hours; qPCR normalized against HPRT
Procedure: as §1

Compound | percentage of cells that were able to produce ROS (percentage of oxidation) [1] | BAFF mRNA (primary human astrocytes) | IL23 (IL23p19) mRNA (primary human astrocytes) | iNOS mRNA (primary human astrocytes) | further results
O=c1cc(-c2ccc(O)c(O)c2)oc2cc(O)cc(O)c12 [luteolin] | did not seem to have a detectable effect | – | – | – | –
Oc1ccc(C=Cc2cc(O)cc(O)c2)cc1 [resveratrol] | did not seem to have a detectable effect | – | – | – | –
C[C@]12CC[C@@H]3c4ccc(O)cc4CC[C@H]3[C@@H]1CC[C@@H]2O [Estradiol, 17β-Estradiol] | – | not | not | not | –
O=C(O)CCCCC1CCSS1 (stereo not drawn) [alpha-lipoic acid, alpha lipoic acid] | decreased the percentage of cells that were able to produce ROS | – | – | – | –
COc1cc(C(C)=O)ccc1O [apocynin] | decreased the percentage of cells that were able to produce ROS; also recorded: decreased the ROS production | – | – | – | motor neuron survival (ChAT-positive cells) [2]: restored motor neuron survival; also recorded: recovery of motor neuron survival; motor neuron survival (ChAT-positive cells) ([2]; listed as Apocynin): rescued the motor neuron survival
Oc1ccc(-n2nc3ccc(O)cc3c2Cl)cc1 [Indazol-Cl] | – | repress | repress | repress | TGFβ mRNA (primary human microglia): do not repress; induction of IL1β mRNA (primary human microglia): repress; induction of IL23 (IL23p19) mRNA (primary human microglia): repress
Oc1ccc(-n2nc3ccc(O)cc3c2Br)cc1 [Indazol-Br] | – | repress | repress | repress | TGFβ mRNA (primary human microglia): do not repress; induction of IL1β mRNA (primary human microglia): repress; induction of IL23 (IL23p19) mRNA (primary human microglia): repress

From patent US20120003655A1, “IDENTIFICATION OF NEUROPROTECTIVE AGENTS USING PRO-INFLAMMATORY HUMAN GLIAL CELLS” (The Salk Institute for Biological Studies, priority 2008, published 2012)
